The structures appear in SMILES notation. Values joined by “and” are separate entries in the source; they are usually repeats but may differ in a detail not shown here. Equal values may be shown once.

The source of these data is the pKa sets of Baltruschat and Czodrowski (2020).

The term pKa denotes the negative logarithm of the acid dissociation constant. High values mean a group that holds its proton tightly, low ones a group that gives up its proton readily. Where the note is “basic group”, `CN1CCCN(C)c2cccc3cccc1c23` showed a pKa of 10.3.
For the compound `O=C(O)c1cncs1`, the pKa (acidic group) was 2.99.
The compound `C1CN(CCN2CCOCC2)CCO1` gave a pKa (basic group) of 6.65.
In the case of `NS(=O)(=O)c1ccsc1C(=O)O`, the pKa (acidic group) stood at 3.3.
`N[C@@H]1C[C@@H]1[NH3+]` displayed a pKa (basic group) of 4.2.
Same read-out and setting: for `CCCN(C)N(C)CCC` the value was 7.05; for `Nc1ccccc1[NH3+]`, 1.3.
Regarding `NC(=S)NCc1ccccc1`, the pKa (basic group) was 0.86.
Take `C[NH+]1CCn2c(nc3ccccc32)C1`: the pKa (basic group) amounted to 2.55.
Same read-out and setting: the value for `Nc1ncnc2c1nnn2Cc1ccco1` was 2.6.
Same read-out and setting: the value for `Cn1ccnc1-c1nccn1C` was 4.91; that for `O=C([O-])c1cc2cc(Cn3ccnc3)ccc2s1` was 6.77.
`CCCCCCCc1c(-c2ccccc2)nn(-c2ccccc2)c1O`: the pKa (acidic group) turned out to be 8.
The same measure, in the same setting: the value for `O=C(O)C1(C(=O)O)CC1` was 1.92; that for `CC(C)C[C@H]([NH3+])C(=O)N[C@@H](Cc1c[nH]c[nH+]1)C(=O)O` was 2.76; that for `CC1CCC[C@H](C(C)C(=O)O)C1` (some centres not stated) was 4.59.
`C[NH+](C)CCCNc1c2ccccc2nc2c(F)ccc([N+](=O)[O-])c12`: the pKa (basic group) amounted to 5.41.
For the compound `Sc1cc[nH+]c2ccccc12`, the pKa (acidic group) was determined as 0.77.
Take `O=C(c1ccccc1)N(O)c1ccccc1`: the pKa is 7.87 (acidic group) and -2.08 (basic group).
`Cc1n[nH]c(C)c1C` yielded a pKa (basic group) of 4.82.
As for `C[n+]1c2ccccc2nc2ccc(O)cc21`, the pKa (acidic group) was determined as 3.
The compound `N#CC(C#N)=NNc1ccccc1O` registered a pKa (acidic group) of 6.1.
Take `Cc1ccc(C)nn1`: the pKa (basic group) was 3.99.
Same read-out and setting: the value for `Cc1ccc(C[NH3+])cc1N` was 4.26.
Turning to `COCC1=C(C(=O)O)CC1`, for the setting “acidic group”, the pKa worked out at 4.31.
For the compound `CCCC[P+](CCCC)(CCCC)C1c2ccccc2-c2ccccc21`, the pKa (acidic group) is 10.5.
`CN1CC(=O)NC1=O` registered a pKa (acidic group) of 11.4.
Same read-out and setting: the value for `O=C(O)CC[C@@H]1NC(=O)CNC1=O` was 4.36.
In turn, `CN1CCC(NN)CC1` had a pKa (basic group) of 8.85.
As to `O=C1O[C@@H]([C@@H](O)CO)C([O-])=C1O`, the pKa (acidic group) was found to be 11.3.
For the compound `COc1ccc2ccc(OC)c(N3CCOCC3)c2c1N1CCOCC1`, under “basic group”, the pKa is 13.
Same read-out and setting: the value for `NCCNCCc1ccccc1` was 9.44.
As for `O=Cc1cc([N+](=O)[O-])cc(Br)c1O`, the pKa (acidic group) was found to be 3.48.
Where the note is “acidic group”, `O=C(C[n+]1cccc2c3ccccc3ccc21)c1ccccc1` showed a pKa of 11.3.
The same measure, in the same setting: for `[NH3+]CCC(=O)NC(Cc1c[nH]c[nH+]1)C(=O)O` (configuration not stated) the value was 2.96.
In the case of `c1ccc(-c2ccc3nccn3n2)cc1`, where the note is “basic group”, the pKa came to 4.71.
Where the note is “acidic group”, `O=C1Cc2cc(O)ccc21` yielded a pKa of 7.24.
Still for that read-out and setting: the value for `COC(=O)CCS` was 9.33.
Under “basic group”, `CC(N)CO` (configuration not stated) gave a pKa of 9.43.
On the same count and under the same terms, for `C1CCN(CCC[NH+]2CCCC2)C1` the value was 8.03.
For the compound `Cc1ccc(O)c(CN(C)C)c1`, the pKa by setting is: (acidic group) 11.2; (basic group) 8.68.
Turning to `Brc1cccc(-c2nnn[nH]2)c1`, the pKa (acidic group) amounted to 3.82.
Same read-out and setting: the value for `OB(O)c1ccccc1` was 8.74.
The same measure, in the same setting: the value for `O=S(=O)([N-]c1ncc(Cl)cn1)c1ccc(O)cc1` was 8.84.
For `CC1=C(CC(C)[NH2+]CC(O)c2ccc(N)cc2)CCC1(C)C` (configuration not stated), the pKa (basic group) was 3.69.
`C[n+]1cccc(/C=C(/O)c2ccccc2)c1` displayed a pKa (acidic group) of 6.75.
Turning to `c1ccc(-c2ccnc3c2ccc2cccnc23)cc1`, the pKa (basic group) was found to be 4.9.
Take `O=C([O-])C[NH+](CC(=O)[O-])Cc1ccccc1O`: the pKa (acidic group) was found to be 8.17.
On the same count and under the same terms, for `COc1cc([N+](=O)[O-])ccc1O` the value was 6.83.
Regarding `C[C@@H]1CC[C@H](C)[C@H]1C(=O)O`, the pKa (acidic group) stood at 4.69.
For the setting “basic group”, `N#Cc1ccncc1` had a pKa of 1.91.
Same read-out and setting: for `Nc1ccnc2c([O-])cccc12` the value was 10.7; for `C[NH+](C)CCCNc1ccnc2cc([N+](=O)[O-])ccc12`, 6.77; for `COc1cc(S(C)=O)ccc1-c1nc2ncccc2[nH]1` (configuration not stated), 3.91 and 3.89.
Same read-out and setting: for `c1ncc(Cc2cnc[nH]2)[nH]1` the value was 7.63.
For the setting “acidic group”, `CC(C#N)C(C)(C)C(=O)O` (configuration not stated) displayed a pKa of 3.97.
Regarding `CS(=O)C(C)(C)C` (configuration not stated), the pKa (basic group) is -1.71.
Same read-out and setting: the value for `C#C[C@]1(O)C[C@@H](C)N[C@H]2CCCC[C@@H]21` was 9.29.
Still for that read-out and setting: the value for `COc1cccc(Nc2ccccc2)c1` was 0.37; that for `COc1ccc(OC)c(N)c1` was 3.72; that for `Cc1nc(C)nc(N)n1` was 3.6.
On the same count and under the same terms, for `Cc1cc(N)ccc1CN` the value was 9.77.
For the compound `O=C([O-])/C(=N\O)c1ccccc1`, the pKa (acidic group) was found to be 10.9.
The same measure, in the same setting: the value for `COc1cccc(OC)c1O` was 10.1.
With `C[C@@H]1N[C@H]1C`, the pKa (basic group) came to 5.33.
As to `c1c[nH]c(P(c2ncc[nH]2)c2[nH]cc[nH+]2)n1`, the pKa (basic group) was determined as 6.59.
On the same count and under the same terms, the value for `NNC(=O)CC([NH2+]CCO)C(=O)[O-]` (configuration not stated) was 2.13.
Under “acidic group”, `Cc1ccc(CCC(=O)O)cc1` displayed a pKa of 4.74.
Regarding `C[C@H]1CCN2CCC[C@@H]12`, the pKa (basic group) worked out at 11.4.
For the setting “acidic group”, `O=S(O)CCCc1ccccc1` returned a pKa of 2.05.
Where the note is “basic group”, `CCCCCN(CC(O)CC)CC(O)CC` (configuration not stated) showed a pKa of 9.2.
The same measure, in the same setting: for `CSc1ccc(N)cc1[N+](=O)[O-]` the value was 2.47.
As to `Cc1cc(Cc2cc(O)ccc2C)c([O-])c([N+](=O)[O-])c1`, the pKa (acidic group) was 10.4.
Turning to `CC(C)CCCC(C)N` (configuration not stated), where the note is “basic group”, the pKa is 10.3.
Same read-out and setting: for `Cc1cnc(N(C)C)s1` the value was 6.08; for `CC(C)n1c(N)nc2ccc(/C(=C\C(N)=O)c3cccc(F)c3F)cc21`, 6.7.
In the case of `CCC(P)C(=O)O` (configuration not stated), the pKa (acidic group) came out at 4.08.
Turning to `C[n+]1ccc(-c2nc3ccccc3[nH]2)cc1`, the pKa is, setting by setting: (acidic group) 8.89; (basic group) 2.26.
Regarding `Cc1nn(C)c(O)c1Cc1ccccc1`, where the note is “acidic group”, the pKa was determined as 10.9.
